Source: patent US20120016010A1, “RNA Interference Mediated Inhibition of BTB and CNC Homology 1, Basic Leucine Zipper Transcription Factor 1 (BACH1) Gene Expression Using Short Interfering Nucleic Acid (siNA)” (Merck Sharp & Dohme Corp, priority 2009, published 2012)
[invAb] = inverted abasic unit; d = 2'-deoxy (DNA); m = 2'-O-methyl; r = 2'-OH (RNA); f = 2'-fluoro

Key:
Bach1 mRNA [1] = test: Initial screen: Bach1 mRNA knock-down in mouse NIH 3T3 cells (96-well transfection, quantitative RT-PCR); assay type: cell-based; conditions: mouse NIH3T3 cells, n = 2, 24 hrs post-transfection, protocol 10 nM siNA
Description: (§1) All cells were obtained from ATCC (Manassas, Va.) unless otherwise indicated. Cells were grown and transfected under standard conditions, which are detailed below for each cell line.
(§2) Cells were plated in all wells of a tissue-culture treated, 96-well plate at a final count of 5000 cells/well in 100 μL of the appropriate culture media. The cells were cultured for 24 hours after plating at 37° C. in the presence of 5% CO2.
(§3) After 24 hours, complexes containing siNA and RNAiMax were created as follows: A solution of RNAiMax diluted 33-fold in OPTI-MEM was prepared. […] After incubation of RNAiMax/OPTI-MEM solution at room temperature for 5 min, an equal volume of the siNA solution and the RNAiMax solution were added together for each of the siNAs.
(§4) This solution was incubated at room temperature for 20 minutes. After incubation, 20 uL of the solution was added to each of the relevant wells. The final concentration of siNA in each well was 10 nM and the final volume of RNAiMax in each well was 0.3 ul. […]
(§5) Briefly, a 60 uL (1 plate) or 110 uL (2 plates) of the Lysis Solution with DNase I was dispensed into each well of the Lysis Buffer Plate (twin.tec full skirt plate). The lysis buffer and stop plates were stored at 4° C. until the cells were washed.
(§6) The plate was spun at 1100 rpm for 5 minutes. The culture medium was aspirated and discarded from the wells of the culture plate. The lysis was performed automatically using a BioMek FX instrument and method. After the Biomek method was completed, the lysis plate was incubated for 2 min at room temperature. The lysis plate can be stored for 2 hours at 4° C., or at −20° C. or −80° C. for two months.
(§7) Each well of the reverse transcription plate required 10 uL of 2× reverse transcriptase Buffer, 1 uL of 20× reverse transcription enzyme and 2 uL of nuclease-free water. The reverse transcription master mix was prepared by mixing 2× reverse transcription buffer, 20× reverse transcription enzyme mix, and nuclease-free water. 13 uL of the reverse transcription master mix was dispensed into each well of the reverse transcription plate (semi-skirted). A separate reverse transcription plate was prepared for each cell plate. The plate was loaded onto a Biomek NX or Biomek FX Dual −96 and the Biomek method was run. The program is programmed to automatically added 7 uL of lysate from the cell lysis procedure described above into each well of the reverse transcription plate. The plate is sealed and spun on a centrifuge (1000 rpm for 30 seconds) to settle the contents to the bottom of the reverse transcription plate. The plate is placed in a thermocycler at 37° C. for 60 min, 95° C. for 5 min, and 4° C. until the plate is removed from the thermocycler. Upon removal, if not used immediately, the plate was frozen at −20° C.
(§8) A series of probes and primers were used to detect the various mRNA transcripts of the genes of Bach1, HMOX-1, and GAPDH in mouse and human cell lines. The assays were performed on an ABI 7900 instrument, according to the manufacturer's instructions. […] The PCR reactions were carried out at 50° C. for 2 min, 95° C. for 20 min followed by 40 cycles at 95° C. for 15 secs and 60° C. for 1 min
(§9) Within each experiment, the […] was set in the exponential phase of the amplification curve, and based on the intersection point of the baselines with the amplification curve, a Ct value was assigned by the instrument.
(§10) The expression level of the gene of interest and % knock-down was calculated using Comparative Ct method:
(§11) ΔCt=ΔCt(Target siRNA)−ΔCt(NTC)
(§12) Relative expression level=2^−ΔΔCt
(§13) The non-targeting control siNA was, unless otherwise indicated, chosen as the value against which to calculate the % knock-down, because it is the most relevant control.

Bach1 mRNA [2] = test: Initial screen: Bach1 mRNA knock-down in human A549 cells (96-well transfection, quantitative RT-PCR); assay type: cell-based; conditions: Bach1 mRNA, 10 nM siNA, human A549 cells, n = 2, mean ± S.D., normalized to GAPDH and non-targeting control, 24 hrs post-transfection
Description: as §1, §2, §3, §4, §5, §6, §7, §8, §9, §10, §11, §12, §13

Row | Substance | % KD (Bach1 mRNA [1]) | % KD (Bach1 mRNA [2])
1 | 29960-DC: Bach1 siNA duplex, target site 1377; sense B ccAAAGAuGGcucAGAAcA TTB (SEQ 69); antisense UGUucuGAGccAucuuuGGUU (SEQ 70) (sense CCAAAGAUGGCUCAGAACATT; antisense UGUUCUGAGCCAUCUUUGGUU; sense: DNA at AGT, 2'-fluoro at CU, [invAb] at 5' end, 3' end, backbone not given here; antisense: sugars from the 5' end rrrfffmmmffmfffffmmmm, backbone not given here) | 5.9 ± 6.4% | 34 ± 3%
2 | 29975-DC: Bach1 siNA duplex, target site 1893 (mouse); sense B GucGcAAGAGGAAAcuuGA TTB (SEQ 99); antisense UCAAGuuuccucuuGcGAcUU (SEQ 100) (sense GUCGCAAGAGGAAACUUGATT; antisense UCAAGUUUCCUCUUGCGACUU; sense: DNA at AGT, 2'-fluoro at CU, [invAb] at 5' end, 3' end, backbone not given here; antisense: sugars from the 5' end rrrmmfffffffffmfmmfmm, backbone not given here) | 40.4 ± 0.4% | 59 ± 8.3%
3 | 29980-DC: Bach1 siNA duplex, target site 1939 (mouse); sense B cGAGAAGcuGcAAAGuGAA TTB (SEQ 109); antisense UUCAcuuuGcAGcuucucGUU (SEQ 110) (sense CGAGAAGCUGCAAAGUGAATT; antisense UUCACUUUGCAGCUUCUCGUU; sense: DNA at AGT, 2'-fluoro at CU, [invAb] at 5' end, 3' end, backbone not given here; antisense: sugars from the 5' end rrrmffffmfmmffffffmmm, backbone not given here) | 49.2 ± 1.1% | 91.3 ± 0.9%
4 | 29985-DC: Bach1 siNA duplex, target site 1312; sense B AGGcuucuGGAGuGAcAuu TTB (SEQ 119); antisense AAUGucAcuccAGAAGccuUU (SEQ 120) (sense AGGCUUCUGGAGUGACAUUTT; antisense AAUGUCACUCCAGAAGCCUUU; sense: sugars from the 5' end dddfffffddddfrdfdffdd, [invAb] at 5' end, 3' end, backbone not given here; antisense: sugars from the 5' end rrrmffmffffmmmmmfffmm, backbone not given here) | 1.3 ± 4.5% | 18.6 ± 6.5%
5 | 29948-DC: Bach1 siNA duplex, target site 1285; sense B GcGAGAAGuGGcAGAAcAc TTB (SEQ 45); antisense GUGuucuGccACuuCuCGcUU (SEQ 46) (sense GCGAGAAGUGGCAGAACACTT; antisense GUGUUCUGCCACUUCUCGCUU; sense: DNA at AGT, 2'-fluoro at CU, [invAb] at 5' end, 3' end, backbone not given here; antisense: sugars from the 5' end rrrffffmffmmffmfmmfmm, backbone not given here) | −16.3 ± 12.6% | 51.9 ± 3^ %
6 | 29955-DC: Bach1 siNA duplex, target site 737; sense B GAGuccAuGuGcuuAGAGA TTB (SEQ 59); antisense UCUcuAAGcAcAuGGAcucUU (SEQ 60) (sense GAGUCCAUGUGCUUAGAGATT; antisense UCUCUAAGCACAUGGACUCUU; sense: sugars from the 5' end rrrfffdfdfdfffddddddd, [invAb] at 5' end, 3' end, backbone not given here; antisense: sugars from the 5' end rrrffmmmfmfmfmmmfffmm, backbone not given here) | −12.2 ± 4.3% | 14.6 ± 0.2%
7 | 29973-DC: Bach1 siNA duplex, target site 1780 (mouse); sense B cucAcGAAAuGAuuuccAA TTB (SEQ 95); antisense UUGGAAAucAuuucGuGAGUU (SEQ 96) (sense CUCACGAAAUGAUUUCCAATT; antisense UUGGAAAUCAUUUCGUGAGUU; sense: DNA at AGT, 2'-fluoro at CU, [invAb] at 5' end, 3' end, backbone not given here; antisense: sugars from the 5' end rrrmmmmffmffffmfmmmmm, backbone not given here) | 76.4 ± 5.3% | −8 ± 11.1%
8 | 29970-DC: Bach1 siNA duplex, target site 1472 (mouse); sense B GAGuGucccuGGuuGGGuA TTB (SEQ 89); antisense UACccAAccAGGGAcAcucUU (SEQ 90) (sense GAGUGUCCCUGGUUGGGUATT; antisense UACCCAACCAGGGACACUCUU; sense: DNA at AGT, 2'-fluoro at CU, [invAb] at 5' end, 3' end, backbone not given here; antisense: sugars from the 5' end rrrffmmffmmmmmfmfffmm, backbone not given here) | 69.4 ± 4.8% | 46.8 ± 5.1%
9 | 29976-DC: Bach1 siNA duplex, target site 1585 (mouse); sense B cuGcucAAGcAAcuuGGAA TTB (SEQ 101); antisense UUCcAAGuuGcuuGAGcAGUU (SEQ 102) (sense CUGCUCAAGCAACUUGGAATT; antisense UUCCAAGUUGCUUGAGCAGUU; sense: DNA at AGT, 2'-fluoro at CU, [invAb] at 5' end, 3' end, backbone not given here; antisense: sugars from the 5' end rrrfmmmffmfffmmmfmmmm, backbone not given here) | −1.2 ± 11.6% | 17.5 ± 1.7%
10 | 29950-DC: Bach1 siNA duplex, target site 470; sense B GAGGAAuccuGcuuucAGu TTB (SEQ 49); antisense ACUGAAAGcAGGAuuccucUU (SEQ 50) (sense GAGGAAUCCUGCUUUCAGUTT; antisense ACUGAAAGCAGGAUUCCUCUU; sense: DNA at AGT, 2'-fluoro at CU, [invAb] at 5' end, 3' end, backbone not given here; antisense: sugars from the 5' end rrrmmmmmfmmmmffffffmm, backbone not given here) | 42.5 ± 6.4% | 90.6 ± 1.7%
11 | 29968-DC: Bach1 siNA duplex, target site 671 (mouse); sense B GcAGAuGAAuucuuGGAAA TTB (SEQ 85); antisense UUUccAAGAAuucAucuGcUU (SEQ 86) (sense GCAGAUGAAUUCUUGGAAATT; antisense UUUCCAAGAAUUCAUCUGCUU; sense: DNA at AGT, 2'-fluoro at CU, [invAb] at 5' end, 3' end, backbone not given here; antisense: sugars from the 5' end rrrffmmmmmfffmfffmfmm, backbone not given here) | 71 ± 8.7% | 28.2 ± 3.7%
